From US8952024B2, “Herbicidal pyrimidone derivatives” (E I du Pont de Nemours and Company, priority 2009, dated 2015)

Tests used:
Type in all cases: in vivo
[1] = tested on: barnyardgrass (Echinochloa crus-galli); assay: Test A pre-/postemergence plant response
Procedure, shortened: (§1)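 Seeds planted in loam soil/sand blend; test chemicals in non-phytotoxic solvent mixture with surfactant applied as directed soil spray preemergence and, concurrently, postemergence to plants 2–10 cm tall at one- to two-leaf stage. Greenhouse ~10 days; visual injury vs untreated controls, 0 (no effect) to 100 (complete control).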

[2] = tested on: corn (Zea mays); assay: Test A pre-/postemergence plant response
Procedure, shortened: as §1

[3] = tested on: giant foxtail (Setaria faberii); assay: Test A pre-/postemergence plant response
Procedure, shortened: as §1

[4] = tested on: large crabgrass (Digitaria sanguinalis); assay: Test A pre-/postemergence plant response
Procedure, shortened: as §1

[5] = tested on: morningglory (Ipomoea spp.); assay: Test A pre-/postemergence plant response
Procedure, shortened: as §1

[6] = tested on: pigweed (Amaranthus retroflexus); assay: Test A pre-/postemergence plant response
Procedure, shortened: as §1

[7] = tested on: velvetleaf (Abutilon theophrasti); assay: Test A pre-/postemergence plant response
Procedure, shortened: as §1

[8] = tested on: wheat (Triticum aestivum); assay: Test A pre-/postemergence plant response
Procedure, shortened: as §1

[9] = tested on: barnyardgrass (Echinochloa crus-galli); assay: Test B flooded paddy test; conditions: for Plant response rating, Flood, Barnyardgrass: 250 g ai/ha, flooded paddy test, visual rating on 0 to 100 scale (0 no effect, 100 complete control) after 13 to 15 days; for Plant response rating, Barnyardgrass: Flood (flooded paddy test), 13 to 15 days
Procedure, shortened: (§2)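 Rice, umbrella sedge, ducksalad and barnyardgrass were grown to the 2-leaf stage, flooded to 3 cm, and compound was applied directly to the paddy water, with that depth kept throughout. After 13 to 15 days in the greenhouse, plants were visually rated against controls on a 0 (no effect) to 100 (complete control) scale.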

[10] = tested on: ducksalad (Heteranthera limosa); assay: Test B flooded paddy test; conditions: for Plant response rating, Flood, Ducksalad: 250 g ai/ha, flooded paddy test, visual rating on 0 to 100 scale (0 no effect, 100 complete control) after 13 to 15 days; for Plant response rating, Ducksalad: Flood (flooded paddy test), 13 to 15 days
Procedure, shortened: as §2

[11] = tested on: rice (Oryza sativa); assay: Test B flooded paddy test; conditions: for Plant response rating, Flood, Rice: 250 g ai/ha, flooded paddy test, visual rating on 0 to 100 scale (0 no effect, 100 complete control) after 13 to 15 days; for Plant response rating, Rice: Flood (flooded paddy test), 13 to 15 days
Procedure, shortened: as §2

[12] = tested on: umbrella sedge (Cyperus difformis); assay: Test B flooded paddy test; conditions: for Plant response rating, Flood, Sedge, Umbrella: 250 g ai/ha, flooded paddy test, visual rating on 0 to 100 scale (0 no effect, 100 complete control) after 13 to 15 days; for Plant response rating, Sedge, Umbrella: Flood (flooded paddy test), 13 to 15 days
Procedure, shortened: as §2

[13] = Postemergence, 125 g ai/ha, 0 to 100 scale where 0 is no effect and 100 is complete control
[14] = Postemergence, 500 g ai/ha, 0 to 100 scale, 0 = no effect, 100 = complete control, approx. ten days
[15] = Preemergence, 125 g ai/ha, 0 to 100 scale, 0 = no effect, 100 = complete control
[16] = Preemergence, 500 g ai/ha, visual injury, 0 to 100 scale (0 no effect, 100 complete control), approx. ten days
[17] = 62 g ai/ha, scale of 0 to 100 where 0 is no effect and 100 is complete control
[18] = 125 g ai/ha, scale 0 to 100, 0 is no effect, 100 is complete control
[19] = Flood, 31 g ai/ha, scale 0 to 100 (0 no effect, 100 complete control)

COCCn1c(-c2cc(F)cc(F)c2)ncc(C(=O)C2=C(O)CCCC2=O)c1=O [Compound 119]
60: Plant response rating, Morningglory [5, 15] | Plant response rating, Wheat [8, 14] | Plant response rating, Wheat [8, 16]
75: Plant response rating, Flood, Sedge, Umbrella [12]
25: Plant response rating, Sedge, Umbrella [12, 17]
30: Plant response rating, Corn [2, 16] | Plant response rating, Barnyardgrass [9, 17] | Plant response rating, Ducksalad [10, 17]
20: Plant response rating, Corn [2, 15] | Plant response rating, Wheat [8, 15] | Plant response rating, Rice [11, 17]
35: Plant response rating, Flood, Rice [11]
0: Plant response rating, Corn [2, 13]
90: Plant response rating, Barnyardgrass [1, 14] | Plant response rating, Foxtail, Giant [3, 14] | Plant response rating, Foxtail, Giant [3, 15] | Plant response rating, Crabgrass, Large [4, 14] | Plant response rating, Morningglory [5, 13] | Plant response rating, Morningglory [5, 16] | Plant response rating, Velvetleaf [7, 15]
70: Plant response rating, Barnyardgrass [1, 15] | Plant response rating, Corn [2, 14] | Plant response rating, Foxtail, Giant [3, 13] | Plant response rating, Flood, Ducksalad [10]
50: Plant response rating, Wheat [8, 13] | Plant response rating, Flood, Barnyardgrass [9]
100: Plant response rating, Barnyardgrass [1, 16] | Plant response rating, Foxtail, Giant [3, 16] | Plant response rating, Crabgrass, Large [4, 15] | Plant response rating, Crabgrass, Large [4, 16] | Plant response rating, Morningglory [5, 14] | Plant response rating, Pigweed [6, 13] | Plant response rating, Pigweed [6, 14] | Plant response rating, Pigweed [6, 15] | Plant response rating, Pigweed [6, 16] | Plant response rating, Velvetleaf [7, 13] | Plant response rating, Velvetleaf [7, 14] | Plant response rating, Velvetleaf [7, 16]
80: Plant response rating, Barnyardgrass [1, 13] | Plant response rating, Crabgrass, Large [4, 13]

COCCCn1c(-c2cc(F)cc(F)c2)ncc(C(=O)C2=C(O)CCCC2=O)c1=O [Compound 120]
0: Plant response rating, Wheat [8, 15] | Plant response rating, Rice [11, 17]
50: Plant response rating, Corn [2, 14]
75: Plant response rating, Flood, Sedge, Umbrella [12]
65: Plant response rating, Flood, Barnyardgrass [9]
80: Plant response rating, Foxtail, Giant [3, 13] | Plant response rating, Velvetleaf [7, 15]
30: Plant response rating, Corn [2, 16] | Plant response rating, Morningglory [5, 15] | Plant response rating, Ducksalad [10, 17]
40: Plant response rating, Flood, Rice [11] | Plant response rating, Sedge, Umbrella [12, 17]
10: Plant response rating, Corn [2, 13]
70: Plant response rating, Barnyardgrass [1, 15] | Plant response rating, Wheat [8, 14] | Plant response rating, Wheat [8, 16]
85: Plant response rating, Flood, Ducksalad [10]
100: Plant response rating, Barnyardgrass [1, 16] | Plant response rating, Foxtail, Giant [3, 16] | Plant response rating, Crabgrass, Large [4, 14] | Plant response rating, Crabgrass, Large [4, 15] | Plant response rating, Crabgrass, Large [4, 16] | Plant response rating, Morningglory [5, 13] | Plant response rating, Morningglory [5, 14] | Plant response rating, Pigweed [6, 14] | Plant response rating, Pigweed [6, 15] | Plant response rating, Pigweed [6, 16] | Plant response rating, Velvetleaf [7, 13] | Plant response rating, Velvetleaf [7, 14] | Plant response rating, Velvetleaf [7, 16]
90: Plant response rating, Barnyardgrass [1, 13] | Plant response rating, Barnyardgrass [1, 14] | Plant response rating, Foxtail, Giant [3, 14] | Plant response rating, Foxtail, Giant [3, 15] | Plant response rating, Crabgrass, Large [4, 13] | Plant response rating, Morningglory [5, 16] | Plant response rating, Pigweed [6, 13]
20: Plant response rating, Corn [2, 15] | Plant response rating, Wheat [8, 13] | Plant response rating, Barnyardgrass [9, 17]

CCCCn1c(-c2cc(F)cc(F)c2)ncc(C(=O)C2=C(O)CCCC2=O)c1=O [Compound 121]
60: Plant response rating, Wheat [8, 14]
40: Plant response rating, Corn [2, 14]
100: Plant response rating, Barnyardgrass [1, 14] | Plant response rating, Barnyardgrass [1, 16] | Plant response rating, Foxtail, Giant [3, 16] | Plant response rating, Crabgrass, Large [4, 14] | Plant response rating, Crabgrass, Large [4, 16] | Plant response rating, Morningglory [5, 13] | Plant response rating, Morningglory [5, 14] | Plant response rating, Pigweed [6, 13] | Plant response rating, Pigweed [6, 14] | Plant response rating, Pigweed [6, 16] | Plant response rating, Velvetleaf [7, 13] | Plant response rating, Velvetleaf [7, 14] | Plant response rating, Velvetleaf [7, 16]
30: Plant response rating, Corn [2, 16] | Plant response rating, Wheat [8, 13] | Plant response rating, Barnyardgrass [9, 17] | Plant response rating, Sedge, Umbrella [12, 17]
45: Plant response rating, Ducksalad [10, 17]
20: Plant response rating, Barnyardgrass [1, 15]
80: Plant response rating, Barnyardgrass [1, 13] | Plant response rating, Foxtail, Giant [3, 15] | Plant response rating, Crabgrass, Large [4, 13] | Plant response rating, Pigweed [6, 15] | Plant response rating, Velvetleaf [7, 15] | Plant response rating, Flood, Ducksalad [10]
70: Plant response rating, Morningglory [5, 16] | Plant response rating, Flood, Barnyardgrass [9] | Plant response rating, Flood, Sedge, Umbrella [12]
90: Plant response rating, Foxtail, Giant [3, 13] | Plant response rating, Foxtail, Giant [3, 14] | Plant response rating, Crabgrass, Large [4, 15]
55: Plant response rating, Flood, Rice [11]
50: Plant response rating, Wheat [8, 16]
0: Plant response rating, Corn [2, 13] | Plant response rating, Corn [2, 15] | Plant response rating, Morningglory [5, 15] | Plant response rating, Wheat [8, 15] | Plant response rating, Rice [11, 17]

COCCn1c(-c2cccc(F)c2)ncc(C(=O)C2=C(O)CCCC2=O)c1=O [Compound 123]
95: Plant response rating, Flood, Ducksalad [10]
90: Plant response rating, Barnyardgrass [1, 14] | Plant response rating, Crabgrass, Large [4, 14] | Plant response rating, Pigweed [6, 15] | Plant response rating, Ducksalad [10, 18]
55: Plant response rating, Barnyardgrass [9, 18]
30: Plant response rating, Corn [2, 16] | Barnyardgrass plant response rating [9, 19] | Ducksalad plant response rating [10, 19] | Plant response rating, Rice [11, 18]
80: Plant response rating, Barnyardgrass [1, 13] | Plant response rating, Foxtail, Giant [3, 14] | Plant response rating, Crabgrass, Large [4, 13] | Plant response rating, Ducksalad [10, 17]
0: Plant response rating, Corn [2, 15] | Plant response rating, Wheat [8, 13] | Plant response rating, Wheat [8, 15] | Rice plant response rating [11, 19]
70: Plant response rating, Corn [2, 14] | Plant response rating, Foxtail, Giant [3, 13] | Plant response rating, Morningglory [5, 15] | Plant response rating, Velvetleaf [7, 15] | Plant response rating, Flood, Barnyardgrass [9] | Plant response rating, Sedge, Umbrella [12, 17]
40: Plant response rating, Barnyardgrass [9, 17] | Plant response rating, Flood, Rice [11] | Sedge, Umbrella plant response rating [12, 19]
75: Plant response rating, Sedge, Umbrella [12, 18]
100: Plant response rating, Barnyardgrass [1, 16] | Plant response rating, Foxtail, Giant [3, 16] | Plant response rating, Crabgrass, Large [4, 15] | Plant response rating, Crabgrass, Large [4, 16] | Plant response rating, Morningglory [5, 13] | Plant response rating, Morningglory [5, 14] | Plant response rating, Pigweed [6, 13] | Plant response rating, Pigweed [6, 14] | Plant response rating, Pigweed [6, 16] | Plant response rating, Velvetleaf [7, 13] | Plant response rating, Velvetleaf [7, 14] | Plant response rating, Velvetleaf [7, 16]
50: Plant response rating, Barnyardgrass [1, 15] | Plant response rating, Foxtail, Giant [3, 15]
20: Plant response rating, Corn [2, 13] | Plant response rating, Wheat [8, 14] | Plant response rating, Wheat [8, 16] | Plant response rating, Rice [11, 17]
85: Plant response rating, Flood, Sedge, Umbrella [12]
